24 compounds from patent US11046651B2, “Piperazine substituted azapine derivatives and uses thereof” (Alairion, Inc., priority 2019, dated 2021) can be followed below.

One test concerns the target 5-HT2C (Homo sapiens (Human), UniProt P28335). The experiment in a line: 5-HT2C binding assay ([3H]-Mesulergine, HEK293 membranes). Particulars: Table L, class symbols. As to the method: 5-HT2C Binding Assay Protocol
The testing compounds were diluted with DMSO, starting at 2 mM, with 8-points and 5-fold serial dilutions.
1 μL of a compound of the present disclosure the reference compound (Table J) was transferred to an assay plate. […] 1 μL of DMSO was transferred to an assay plate according to the plate map for total binding (High control: HC).
Unifilter-96 GF/C filter plates were soaked with 50 μL of 0.3% PEI per well for about 0.5 hours at room temperature. When the binding assays were complete, the reaction mixture was filtered through the GF/C filter plates using Perkin Elmer Filtermate Harvester, and each plate was washed 4 times with cold wash buffer. The filter plates were dried for 1 hour at 50° C. After drying, the bottom of the filter plate wells were sealed using Perkin Elmer Unifilter-96 backing seal tape. 50 μL of Perkin Elmer Microscint 20 cocktail was added. The top of the filter plates were sealed with Perkin Elmer TopSeal-A sealing film.
(§1) ^3H trapped on filters were counted using Perkin Elmer MicroBeta2 Reader. Inhibition constants were calculated using the following equation:
[formula] The data was analyzed using Prism 5. The model used was “log(inhibitor) vs. response—Variable slope” to fit the data and calculate IC50. The IC50 was then converted to Ki using the following equation: Ki=IC50/(1+L/Kd), wherein L is the radioligand concentration in the reaction system; Kd is the affinity of radioligand to the receptor.

Another test concerns the target H1 (Homo sapiens (Human), UniProt P35367). Put plainly: H1 binding assay ([3H]pyrilamine, HEK293 stable cell line membranes). As to the method:
Example 25. H1 and 5-HT2A Binding Assay Protocol
(§2) The testing compounds were diluted with DMSO, starting at 2 mM, with 8-points and 5-fold serial dilutions. Ketanserin and Pyrilamine were diluted with DMSO, starting at 0.2 mM, with 8-points and 5-fold serial dilution.
(§3) 1 μl of a compounds of the present disclosure and either reference compound (Table C) were transferred to assay plates. 1 μl of 0.2 mM Ketanserin or Pyrilamine was transferred to an assay plate according to the plate map for nonspecific binding (Low control: LC). 1 μl of DMSO was transferred to an assay plate according to plate map for total binding (High control: HC).
(§4) 100 μlof membrane stocks were dispensed into the plates, following the plate map. 100 of radio ligand was added. The plates were sealed and shaken at 300 rpm at room temperature for 1 hour. The Unifilter-96 GF/C filter plates were soaked with 50 of 0.3% PEI per well for at least 0.5 hour at room temperature.
(§5) When the binding assays were complete, the reaction mixture was filtered through GF/C plates using Perkin Elmer Filtermate Harvester, and then each plate was washed 4 times with cold wash buffer. The filter plates were dried for 1 hour at 50 degrees. After drying, the bottom of the filter plate wells were sealed using Perkin Elmer Unifilter-96 backing seal tape. 50 μl of Perkin Elmer Microscint 20 cocktail was added. The top of the filter plates were sealed with Perkin Elmer TopSeal-A sealing film.
as §1
(§6) [formula] The data was analyzed using Prism 5. The model used was “log(inhibitor) vs. response—Variable slope” to fit the data and calculate IC50. The IC50 was then converted to Ki using following equation: Ki=IC50/(1+L/Kd). L is the radioligand concentration in the reaction system; Kd is the affinity of radioligand to the receptor.

A further test concerns the target 5-HT2A (Homo sapiens (Human), UniProt P28223). Put plainly: 5-HT2A binding assay ([3H]-Ketanserin, HEK293 stable cell line membranes). How it is done:
H1 and 5-HT2A Binding Assay Protocol
as §2, §3, §4, §5, §1, §6

Chain of 5-HT2A (P28223 whole entry, species assumed): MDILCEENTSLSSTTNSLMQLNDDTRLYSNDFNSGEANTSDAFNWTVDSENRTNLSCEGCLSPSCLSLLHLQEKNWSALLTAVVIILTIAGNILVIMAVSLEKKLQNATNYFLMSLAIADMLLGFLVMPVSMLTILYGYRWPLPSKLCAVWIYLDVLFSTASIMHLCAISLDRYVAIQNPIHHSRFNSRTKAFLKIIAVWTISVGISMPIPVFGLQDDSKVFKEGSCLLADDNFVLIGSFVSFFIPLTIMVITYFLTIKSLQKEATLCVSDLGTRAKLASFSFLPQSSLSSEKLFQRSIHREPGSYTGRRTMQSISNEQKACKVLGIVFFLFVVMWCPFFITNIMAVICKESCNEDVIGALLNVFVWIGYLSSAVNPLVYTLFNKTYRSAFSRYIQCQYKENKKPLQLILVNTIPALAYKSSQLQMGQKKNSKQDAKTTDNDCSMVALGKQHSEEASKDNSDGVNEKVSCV
Chain of H1 (P35367 whole entry): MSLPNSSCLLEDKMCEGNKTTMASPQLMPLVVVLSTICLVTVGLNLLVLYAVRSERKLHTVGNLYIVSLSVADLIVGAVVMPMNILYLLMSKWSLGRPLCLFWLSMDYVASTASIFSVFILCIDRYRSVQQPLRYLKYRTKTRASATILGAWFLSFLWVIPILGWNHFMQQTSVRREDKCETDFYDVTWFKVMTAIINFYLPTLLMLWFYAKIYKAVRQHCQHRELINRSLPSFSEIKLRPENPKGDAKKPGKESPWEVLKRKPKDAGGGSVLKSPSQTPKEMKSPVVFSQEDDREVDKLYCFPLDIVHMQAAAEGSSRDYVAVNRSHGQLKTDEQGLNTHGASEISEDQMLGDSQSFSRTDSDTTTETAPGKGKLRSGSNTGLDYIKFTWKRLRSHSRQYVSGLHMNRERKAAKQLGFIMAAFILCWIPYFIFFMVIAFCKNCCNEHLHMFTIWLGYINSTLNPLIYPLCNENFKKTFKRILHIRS
Chain of 5-HT2C (P28335 33-458): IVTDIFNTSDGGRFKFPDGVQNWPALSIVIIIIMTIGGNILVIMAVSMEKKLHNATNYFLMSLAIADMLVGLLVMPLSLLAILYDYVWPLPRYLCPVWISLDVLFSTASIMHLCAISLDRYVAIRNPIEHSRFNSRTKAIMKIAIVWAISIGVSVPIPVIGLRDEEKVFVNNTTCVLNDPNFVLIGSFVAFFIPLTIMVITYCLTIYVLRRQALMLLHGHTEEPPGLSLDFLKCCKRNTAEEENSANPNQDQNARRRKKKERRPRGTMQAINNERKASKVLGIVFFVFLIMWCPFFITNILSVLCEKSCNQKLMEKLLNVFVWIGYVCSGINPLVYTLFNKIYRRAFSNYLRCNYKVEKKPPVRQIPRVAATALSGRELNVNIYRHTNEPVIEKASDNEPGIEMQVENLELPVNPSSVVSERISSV

As a reminder, the Ki is a measure of affinity in units of concentration, obtained from inhibition or displacement. A higher Ki goes with a looser hold on the target. Compound `CC(C)(CN1CCN(C2=Nc3cc(F)ccc3Oc3cc(F)ccc32)CC1)C(=O)O` [compound 31, 3-(4-(3,8-difluorodibenzo[b,f][1,4]oxazepin-11-yl)piperazin-1-yl)-2,2-dimethylpropanoic acid] yielded a Ki at 5-HT2C of less than 100 nM.
`Cc1ccc2c(c1)N=C(N1CCN(CC(C)(C)C(=O)O)CC1)c1ccc(C(F)F)cc1O2` [compound 33, 3-(4-(3-(difluoromethyl)-8-methyldibenzo[b,f][1,4]oxazepin-11-yl)piperazin-1-yl)-2,2-dimethylpropanoic acid] registered a Ki on 5-HT2C of less than 100 nM.
With `CSc1ccc2c(c1)Oc1cc(Cl)ccc1N=C2N1CCN(CC(C)(C)C(=O)O)CC1` [Compound No. 4, 3-(4-(7-chloro-3-(methylthio)dibenzo[b,f][1,4]oxazepin-11-yl)piperazin-1-yl)-2,2-dimethylpropanoic acid], the inhibitory constant (Ki) fell in the range of 1 to 25 nM on H1 (Table E, class symbols) and 1 to 25 nM at 5-HT2A (Table F, class symbols).
On to `Cc1ccc2c(c1)Oc1cc(Cl)ccc1N=C2N1CCN(CC2(C(=O)O)CC2)CC1` [Compound No. 13, 1-((4-(7-chloro-3-methyldibenzo[b,f][1,4]oxazepin-11-yl)piperazin-1-yl)methyl)cyclopropane-1-carboxylic acid], for which the Ki at H1 (Table E, class symbols) was 25 to 50 nM; on 5-HT2A (Table F, class symbols), 1 to 25 nM.
The matching figures for `CCc1ccc2c(c1)Oc1cc(Cl)ccc1N=C2N1CCN(CC(C)(C)C(=O)O)CC1` [Compound No. 3, 3-(4-(7-chloro-3-ethyldibenzo[b,f][1,4]oxazepin-11-yl)piperazin-1-yl)-2,2-dimethylpropanoic acid]: 25 to 50 nM and 1 to 25 nM.
Turning to `CC(C)(CN1CCN(C2=Nc3ccccc3Oc3cccc(F)c32)CC1)C(=O)O` [Compound No. 39, 3-(4-(1-fluorodibenzo[b,f][1,4]oxazepin-11-yl)piperazin-1-yl)-2,2-dimethylpropanoic acid], the Ki on H1 (Table E, class symbols) is greater than 50 nM; at 5-HT2A (Table F, class symbols), greater than 50 nM; at 5-HT2C, less than 100 nM.
Turning to `Cc1ccc2c(c1)Oc1ccc(Cl)cc1N=C2N1CCN(CC(C)(C)C(=O)O)CC1` [compound 29, 3-(4-(8-chloro-3-methyldibenzo[b,f][1,4]oxazepin-11-yl)piperazin-1-yl)-2,2-dimethylpropanoic acid], the Ki on 5-HT2C was less than 100 nM.
Turning to `O=C(O)C1(CN2CCN(C3=Nc4ccccc4Cc4ccccc43)CC2)CC1` [Compound No. 12, 1-((4-(11H-dibenzo[b,e]azepin-6-yl)piperazin-1-yl)methyl)cyclopropane-1-carboxylic acid], the Ki at H1 (Table E, class symbols) was 1 to 25 nM; on 5-HT2A (Table F, class symbols), greater than 50 nM.
With `COc1ccc2c(c1)Oc1cc(F)ccc1N=C2N1CCN(CC(C)(C)C(=O)O)CC1` [Compound No. 21, 3-(4-(7-fluoro-3-methoxydibenzo[b,f][1,4]oxazepin-11-yl)piperazin-1-yl)-2,2-dimethylpropanoic acid], the Ki is greater than 50 nM at H1 (Table E, class symbols) and 25 to 50 nM on 5-HT2A (Table F, class symbols).
As to `CC(C)c1ccc2c(c1)Oc1cc(Cl)ccc1N=C2N1CCN(CC(C)(C)C(=O)O)CC1` [Compound No. 2, 3-(4-(7-chloro-3-isopropyldibenzo[b,f][1,4]oxazepin-11-yl)piperazin-1-yl)-2,2-dimethylpropanoic acid], the Ki lay within 25 to 50 nM on H1 (Table E, class symbols) and 1 to 25 nM on 5-HT2A (Table F, class symbols).
For the compound `CCc1ccc2c(c1)Oc1cc(C)ccc1N=C2N1CCN(CC2(C(=O)O)CC2)CC1` [Compound No. 14, 1-((4-(3-ethyl-7-methyldibenzo[b,f][1,4]oxazepin-11-yl)piperazin-1-yl)methyl)cyclopropane-1-carboxylic acid], the Ki at H1 (Table E, class symbols) was greater than 50 nM; on 5-HT2A (Table F, class symbols) it was 1 to 25 nM.
The matching figures for `Cc1ccc2c(c1)Oc1cc(F)ccc1C(N1CCN(CC(C)(C)C(=O)O)CC1)=N2` [Compound No. 17, 3-(4-(3-fluoro-7-methyldibenzo[b,f][1,4]oxazepin-11-yl)piperazin-1-yl)-2,2-dimethylpropanoic acid]: 1 to 25 nM and 1 to 25 nM.
As to `CC(CN1CCN(C2=Nc3ccccc3Cc3ccccc32)CC1)C(=O)O` (stereo not shown) [A-1, 3-(4-(11H-dibenzo[b,e]azepin-6-yl)piperazin-1-yl)-2-methylpropanoic acid, reference compound], the Ki on H1 (numeric values) is 104 nM; at 5-HT2A (numeric values), 1380 nM.
Regarding `Cc1ccc2c(c1)Oc1cc(C)ccc1C(N1CCN(CC3(C(=O)O)CC3)CC1)=N2` [Compound No. 9, 1-((4-(3,7-dimethyldibenzo[b,f][1,4]oxazepin-11-yl)piperazin-1-yl)methyl)cyclopropane-1-carboxylic acid], the Ki was greater than 50 nM at H1 (Table E, class symbols) and 1 to 25 nM on 5-HT2A (Table F, class symbols).
Consider `CC(C)(CN1CCN(C2=Nc3ccc(F)cc3Oc3cc(F)ccc32)CC1)C(=O)O` [Compound No. 11, 3-(4-(3,7-difluorodibenzo[b,f][1,4]oxazepin-11-yl)piperazin-1-yl)-2,2-dimethylpropanoic acid], for which the Ki on H1 (Table E, class symbols) is greater than 50 nM; at 5-HT2A (Table F, class symbols), 1 to 25 nM.
In the case of `Cc1ccc2c(c1)Oc1cc(F)ccc1C(N1CCN(CC3(C(=O)O)CC3)CC1)=N2` [Compound No. 19, 1-((4-(3-fluoro-7-methyldibenzo[b,f][1,4]oxazepin-11-yl)piperazin-1-yl)methyl)cyclopropane-1-carboxylic acid], the inhibition constant (Ki) at H1 (Table E, class symbols) fell in the range of 25 to 50 nM; on 5-HT2A (Table F, class symbols), 1 to 25 nM.
The matching figures for `O=C(O)C1(CN2CCN(C3=Nc4ccc(F)cc4Oc4cc(F)ccc43)CC2)CC1` [Compound No. 10, 1-((4-(3,7-difluorodibenzo[b,f][1,4]oxazepin-11-yl)piperazin-1-yl)methyl)cyclopropane-1-carboxylic acid]: 1 to 25 nM and 1 to 25 nM.
For `Cc1ccc2c(c1)Oc1ccc(F)cc1N=C2N1CCN(CC(C)(C)C(=O)O)CC1` [compound 28, 3-(4-(8-fluoro-3-methyldibenzo[b,f][1,4]oxazepin-11-yl)piperazin-1-yl)-2,2-dimethylpropanoic acid], at 5-HT2C, the Ki was in the range of 100 to 500 nM.
Still for that read-out and setting: then `COc1ccc2c(c1)C(N1CCN(CC(C)(C)C(=O)O)CC1)=Nc1cc(Cl)ccc1O2` [compound 35, 3-(4-(8-chloro-2-methoxydibenzo[b,f][1,4]oxazepin-11-yl)piperazin-1-yl)-2,2-dimethylpropanoic acid], with 100 to 500 nM.
With `Cc1ccc2c(c1)C(N1CCN(CC(C)(C)C(=O)O)CC1)=Nc1cc(Cl)ccc1O2` [compound 34, 3-(4-(8-chloro-2-methyldibenzo[b,f][1,4]oxazepin-11-yl)piperazin-1-yl)-2,2-dimethylpropanoic acid], on 5-HT2C, the inhibition constant (Ki) was less than 100 nM.
For the compound `Cc1ccc2c(c1)Oc1cc(C(F)F)ccc1N=C2N1CCN(CC(C)(C)C(=O)O)CC1` [Compound No. 16, 3-(4-(7-(difluoromethyl)-3-methyldibenzo[b,f][1,4]oxazepin-11-yl)piperazin-1-yl)-2,2-dimethylpropanoic acid], the Ki on H1 (Table E, class symbols) was greater than 50 nM; on 5-HT2A (Table F, class symbols) it was greater than 50 nM.
`Cc1ccc2c(c1)Oc1cc(F)ccc1N=C2N1CCN(CC2(C(=O)O)CC2)CC1` [Compound No. 18, 1-((4-(7-fluoro-3-methyldibenzo[b,f][1,4]oxazepin-11-yl)piperazin-1-yl)methyl)cyclopropane-1-carboxylic acid]: the inhibition constant Ki on H1 (Table E, class symbols) lay within 1 to 25 nM; on 5-HT2A (Table F, class symbols), 25 to 50 nM.
For the compound `CCCc1ccc2c(c1)Oc1cc(Cl)ccc1N=C2N1CCN(CC(C)(C)C(=O)O)CC1` [Compound No. 5, 3-(4-(7-chloro-3-propyldibenzo[b,f][1,4]oxazepin-11-yl)piperazin-1-yl)-2,2-dimethylpropanoic acid], the inhibition constant Ki at H1 (Table E, class symbols) was 25 to 50 nM; at 5-HT2A (Table F, class symbols), 1 to 25 nM.
As to `COc1ccc2c(c1)Oc1cc(Cl)ccc1N=C2N1CCN(CC(C)(C)C(=O)O)CC1` [Compound No. 20, 3-(4-(7-chloro-3-methoxydibenzo[b,f][1,4]oxazepin-11-yl)piperazin-1-yl)-2,2-dimethylpropanoic acid], the Ki at H1 (Table E, class symbols) is greater than 50 nM; on 5-HT2A (Table F, class symbols), 25 to 50 nM.
